Data from patent EP0578521B1, “New peptide derivatives with bradykinin-antagonistic activity, process to prepare them and pharmaceutical compositions containing them” (ADIR ET COMPAGNIE, priority 1992, dated 1996).
Where two headings read alike, the source gives them in different places. Square brackets hold non-standard residues; d marks the D form. Peptide text beside a SMILES is read from it. * marks the point of attachment. Benzoyl(4-guanidino) = N=C(N)Nc1ccc(C(=O)*)cc1; Oic = O=C(O)[C@@H]1C[C@@H]2CCCC[C@@H]2N1; Hyp = O=C(O)[C@@H]1C[C@@H](O)CN1; dTic = O=C(O)[C@H]1Cc2ccccc2CN1; 2Thi = N[C@@H](Cc1cccs1)C(=O)O; Agp = N=C(N)NC[C@H](N)C(=O)O

How the values were obtained:
Récepteur B2 = type: cell-based, lapin
Description: Exemple 44 : Mesure in vitro de l'effet des dérivés de l'invention vis à vis de la réponse contractile du muscle lisse de la veine jugulaire de lapin induite par la bradykinine
Cette étude a été réalisée selon le protocole décrit par D. REGOLI et J. BARABE (Récepteur B2-Pharmacology of Bradykinin and related kinins, Pharm. Rev., 32, 1, 1-46, 1980). Des anneaux de veine jugulaire sont suspendus dans des chambres d'organes (40 ml) contenant une solution de KREBS thermostatée à 37°C, oxygénée en permanence par un bullage de 95 % 02/5 % CO2. La force isométrique développée par les anneaux est mesurée et enregistrée. La tension de base est d'environ 2 g. Les cuves reçoivent les concentrations du dérivé de l'invention à tester (10^-8M à 10^-5M), une cuve contrôle reçoit le solvant. Une courbe concentration réponse à la bradykinine est réalisée de 10^-10M à 10^-5M avec une progression par demi-log. La puissance des antagonistes à la bradykinine est mesurée à partir des courbes log dose-effet permettant la détermination des pA2 (logarithme négatif de la concentration molaire du dérivé de l'invention qui oblige à doubler la concentration de bradykinine pour obtenir le même effet). Lors de ce test, les dérivés de l'invention ont un pA2 compris entre 9 et 10. Plus particulièrement, le pA2 du composé de l'exemple 2 est égal à 9,1 ± 0,1, celui de l'exemple 3 est égal à 9,4 ± 0,1, celui de l'exemple 5 est égal à 9,3 ± 0,1.

[1] = test system: oedème de la patte de rat induite par injection de carragénine; conditions: rat, 0,1 mg/kg I.V., at time 1 hour, versus vehicle control group
Description: L'activité anti-inflammatoire des dérivés de l'invention a été mesurée en utilisant le modèle de l'oedème de la patte de rat induite par injection de carragénine (WINTER G. A. et coll. Proc. Soc. Exp. Biol. Med., 3, 544-547, 1960). Cette étude est effectuée sur rats mâles de 180-210 g par lot de 8. Les dérivés de l'invention sont administrés par voie I.V. au temps 0 précédant immédiatement l'injection de carragénine par voie sous-cutanée dans la plante de la patte arrière droite du rat (Carragénine lambda type IV, sigma, solution à 1 %, volume injecté 0,1 ml). Le volume de la patte aux différents temps de l'expérimentation est mesurée par plethysmographie. L'inhibition de l'oedème au temps 3 heures est calculée par rapport à un lot contrôle ayant reçu le véhicule et exprimée en pourcentage d'inhibition.

[2] = antagonism of bradykinin concentration-response curve (10^-10M to 10^-5M), rabbit jugular vein rings, compound 10^-8M to 10^-5M, 37°C

Compound | pA2 (Récepteur B2; [2]) | inhibition de l'oedème [1] [%] | pA2 (Récepteur B2)
Gba-Arg-Pro-Hyp-Gly-Thi-Ser-[3,2-c]ttp-Oic-Arg [Exemple 2] | 9,1 ± 0,1 | 36 | 
arg-Arg-Pro-Hyp-Gly-Thi-Ser-[3,2-c]ttp-Oic-Arg [Exemple 3] | 9,4 ± 0,1 | 36 | 
N=C(N)NCCC[C@H](NC(=O)c1ccc(NC(=N)N)cc1)C(=O)N1CCC[C@H]1C(=O)N1C[C@H](O)C[C@H]1C(=O)NCC(=O)N[C@@H](Cc1cccs1)C(=O)N[C@@H](CO)C(=O)N1Cc2ccccc2C[C@@H]1C(=O)N1[C@H](C(=O)N[C@@H](CNC(=N)N)C(=O)O)C[C@@H]2CCCC[C@@H]21 [Exemple 5, Gba-Arg-Pro-Hyp-Gly-Thi-Ser-tic-Oic-Gpr-OH] ({Benzoyl(4-guanidino)}-RP[Hyp]G[2Thi]S[dTic][Oic][Agp]-OH) |  |  | 9,3 ± 0,1
